Key:
[1] = tested on: mesenteric artery; experiment: Relaxation of Mesenteric Artery (isolated rabbit mesenteric artery contracted with KCl); conditions: Oryctolagus cuniculus, concentration for 50% relaxation, KCl 15~20 mM contraction, read-out: Relaxation of Mesenteric Artery ED50
Procedure: When, for example, 1-[4-(N-methyl-N-cyclohexylamino)-6-quinazolinesulfonyl]-4-(2-ethoxy-2-phenylethyl)piperazine was added and a complete relaxation was designated 100%, the concentration which could bring about a relaxation of 50%, i.e., ED50 was 0.8 μM.
After a home bred rabbit of a Japanese species weighing about 3 Kg was subjected to bloodletting, resulting in death and then to abdominal incision, the mesenteric artery was taken out, cut into helicoids of 2 mm×25 mm and suspended in a 20 ml organ bath filled with a Krebs-Henseleit solution into which a mixed gas of 95% by volume of O2 and 5% by volume of CO2 was introduced and one end of the artery was connected with an isometric transducer. When a load of 1.5 g was applied to the artery, the contraction and the relaxation of the artery was recorded as a weight on the transducer (a product of Nippon Koden K.K., Japan, "FD Pickup TB-912T"). The relaxation of the mesenteric artery was observed by adding the 6-quinazolinesulfonyl derivatives and their pharmaceutically acceptable acid addition salts to the mesenteric artery at the condition of about one half of the maxinum contraction with KCl at a KCl concentrantion of 15~20 mM. When the complete relaxation of the mesenteric artery was designated 100%, the concentration of the 6-quinazolinesulfonyl derivatives and their pharmaceutically acceptable acid addition salts which brought about a relaxation of 50% is shown in Table 6.

[2] = tested on: human blood platelet cAMP PDE; experiment: PDE inhibition, c-AMP-decomposing PDE of human blood platelet; assay type: biochemical; conditions: human blood platelet cAMP PDE specimen; read-out: PDE Inhibition I50, Human Blood Platelet (PII)
Source text: (§1) More specifically, from the results of the experiment using an enzyme specimen in accordance with the reports [Mol. Pharmacol., 15, 49 (1979) and Biochem. Biophys. […] The 6-quinazolinesulfonyl derivatives and the pharmaceutically acceptable acid addition salts have inhibited the decomposition due to the enzyme specimens of substrate c-AMP and guanosine-3',5'-monophosphate (abbreviated "c-GMP"). This means that the compounds of this invention can inhibit the decomposition of the c-AMP and maintain the c-AMP in tissue at a high concentration. In other words, the compounds of this invention are effective for the improvement and medical treatment of a disease accompanied by reduction in the c-AMP and a disease accompanied by infiltration of calcium into tissue, for example, the contraction and convulsion of vascular smooth muscle.
(§2) As the enzyme specimens, human blood platelet and hog cerebral cortex were partially purified in accordance with reports [Mol. Pharmacol., 15, 49 (1979) and Biochem. Biophys. Res. Comun., 84, 277 (1978)]. The effect of the 6-quinazolinesulfonyl derivatives and their pharmaceutically acceptable acid addition salts of this invention on the c-AMP-decomposing PDE and the calmodulin or calcium-dependent cyclic nucleotide PDE was examined under the conditions in accordance with the above described reports. […] The activity of the compounds of this invention is expressed by the concentration which is required to inhibit 50% of the decomposition of the c-AMP-decomposing PDE, i.e., I50 by μM.
*^1 The human blood platelet cAMP PDE specimen was employed.

[3] = tested on: hog cerebral cortex calmodulin or calcium-dependent cyclic nucleotide PDE; experiment: PDE inhibition, calmodulin or calcium-dependent cyclic nucleotide PDE of hog cerebral cortex; assay type: biochemical
Source text: as §1, §2
*^2 The enzyme activity was measured by using calmodulin and Ca^+
dependent specimens. The nonactivation was measured in the presence of
0.2 mM of EGTA, while the activation was measured in the presence of 0.2
mM of CaCl2 and 8 units of calmodulin.

[4] = tested on: vertebral artery; experiment: Effect on blood flow volume of vertebral artery of dog; assay type: in vivo, dog of mixed breed; conditions: Canis lupus familiaris; 1 mg/Kg intravenous; anesthetized dog; read-out: Increased Blood Flow Volume in Vertebral Artery
Procedure: (§3) The effect of the 6-quinazolinesulfonyl derivatives and the pharmaceutically acceptable acid addition salts of this invention on the vasodilation of the femoral and vertebral arteries can be measured by anesthetizing a dog of mixed breed weighing 8 to 15 Kg by an intravenous administration of 35 mg/Kg of pentbarbital, providing an acute type probe (a product of Nippon Koden K.K., Japan) with the femoral and vertebral arteries, administering the 6-quinazolinesulfonyl derivatives and the pharmaceutically acceptable acid addition salts to the femoral vein through a polyethylene tube inserted into the femoral vein side chain and measuring the blood flow volume with an electromagnetic flowmeter (a product of Nippon Koden K.K., Japan, "MF-27"). For example, when 1 mg/Kg of 1-[4-(N-methyl-N-cyclohexylamino)-6-quinazolinesulfonyl]-4-(2-ethoxy-2- phenylethyl)piperazine was intravenously administered, the increased blood flow volume in the femoral artery was 33% and the increased blood flow volume in the vertebral artery was 59%.
(§4) The effect on the vasodilatation of the femoral and vertebral arteries was measured by anesthetizing a dog of mixed breed weighing 8 to 15 Kg by an intravenous administration of 35 mg/Kg of pentbarbital, providing an acute type probe (a product of Nippon Koden K.K., Japan) with the femoral and vertebral arteries, administering the 6-quinazolinesulfonyl derivatives and their pharmaceutically acceptable acid addition salts to the femoral vein through a polyethylene tube inserted into the femoral vein side chain and measuring the blood flow volume with an electromagnetic blood flowmeter (a product of Nippon Koden K.K., Japan, "MF-27").

[5] = Acute toxicity, intravenous administration in mice; conditions: mouse, in vivo, male ddY-strain mice
Procedure: Furthermore, when the 6-quinazolinesulfonyl derivatives and the pharmaceutically acceptable acid addition salts of this invention are intravenously and arterially administered for the above described purposes, any remarkable toxicity cannot be observed.
The acute toxicity of the 6-quinazolinesulfonyl derivatives and their pharmaceutically acceptable acid addition salts was measured by giving male ddY-strain mice an intravenous administration.

[6] = tested on: femoral artery; experiment: Effect on blood flow volume of femoral artery of dog; assay type: in vivo, dog of mixed breed; conditions: Canis lupus familiaris; 1 mg/Kg intravenous; anesthetized dog; read-out: Increased Blood Flow Volume in Femoral Artery
Procedure: as §3, §4

Structure (SMILES) | EC50 [1] [µM] | also measured
CCOC(CN1CCN(S(=O)(=O)c2ccc3ncnc(N)c3c2)CC1)c1ccccc1 (stereo not drawn) [Compound (1), 1-(4-amino-6-quinazolinesulfonyl)-4-(2-ethoxy-2-phenylethyl)piperazine] | 9.8 | –
CCOC(CN1CCN(S(=O)(=O)c2ccc3ncnc(N(C)C)c3c2)CC1)c1ccccc1 (stereo not drawn) [Compound (2), 1-(4-dimethylamino-6-quinazolinesulfonyl)-4-(2-ethoxy-2-phenylethyl)-piperazine] | 4.5 | –
CCOC(CN1CCN(S(=O)(=O)c2ccc3ncnc(N(CC)CC)c3c2)CC1)c1ccccc1 (stereo not drawn) [Compound (3), 1-(4-diethylamino-6-quinazolinesulfonyl)-4-(2-ethoxy-2-phenylethyl)-piperazine] | 5 | –
CCCCN(CCCC)c1ncnc2ccc(S(=O)(=O)N3CCN(CC(OCC)c4ccccc4)CC3)cc12 (stereo not drawn) [Compound (4), 1-(4-dibutylamino-6-quinazolinesulfonyl)-4-(2-ethoxy-2-phenylethyl)-piperazine] | 1.3 | IC50 [2]: 950 µM; IC50 ([3]; activated: 0.2 mM CaCl2 and 8 units of calmodulin, read-out: PDE Inhibition I50, Hog Cerebral Cortex (PII), Activated): 370 µM; PDE Inhibition I50, Hog Cerebral Cortex (PII), Non-activated ([3]; non-activated: presence of 0.2 mM EGTA): not inhibited; change in vivo at 1 mg/kg [4]: 50%; LD50 [5]: 135 mg/kg; change in vivo at 1 mg/kg [6]: 33%
COC(CN1CCN(S(=O)(=O)c2ccc3ncnc(N4CCCCC4)c3c2)CC1)c1ccccc1 (stereo not drawn) [Compound (5), 1-(4-piperidino-6-quinazolinesulfonyl)-4-(2-methoxy-2-phenylethyl)-piperazine] | 5.8 | –
CC(C)OC(CN1CCN(S(=O)(=O)c2ccc3ncnc(N4CCCCC4)c3c2)CC1)c1ccccc1 (stereo not drawn) [Compound (7), 1-(4-piperidino-6-quinazolinesulfonyl)-4-(2-isopropoxy-2-phenylethyl)-piperazine] | 2.2 | –
CC(C)COC(CN1CCN(S(=O)(=O)c2ccc3ncnc(N4CCCCC4)c3c2)CC1)c1ccccc1 (stereo not drawn) [Compound (8), 1-(4-piperidino-6-quinazolinesulfonyl)-4-(2-isobutoxy-2-phenylethyl)-piperazine] | 10.7 | –
CCOC(CN1CCN(S(=O)(=O)c2ccc3ncnc(N4CCOCC4)c3c2)CC1)c1ccccc1 (stereo not drawn) [Compound (14), 1-(4-morpholino-6-quinazolinesulfonyl)-4-(2-ethoxy-2-phenylethyl)-piperazine] | 9.5 | –
CCOC(CN1CCN(S(=O)(=O)c2ccc3ncnc(NC4CCCCC4)c3c2)CC1)c1ccccc1 (stereo not drawn) [Compound (15), 1-(4-cyclohexylamino-6-quinazolinesulfonyl)-4-(2-ethoxy-2-phenylethyl)-piperazine] | 1.6 | –
CCOC(CN1CCN(S(=O)(=O)c2ccc3ncnc(Nc4ccccc4)c3c2)CC1)c1ccccc1 (stereo not drawn) [Compound (16), 1-(4-anilino-6-quinazolinesulfonyl)-4-(2-ethoxy-2-phenylethyl)piperazine] | 2.7 | –
CCOC(CN1CCN(S(=O)(=O)c2ccc3ncnc(NCc4ccccc4)c3c2)CC1)c1ccccc1 (stereo not drawn) [Compound (17), 1-(4-benzylamino-6-quinazolinesulfonyl)-4-(2-ethoxy-2-phenylethyl)-4-(2-ethoxy-2-phenylethyl)piperazine] | 3.2 | –
CCOC(CN1CCN(S(=O)(=O)c2ccc3ncnc(N(C)C4CCCC4)c3c2)CC1)c1ccccc1 (stereo not drawn) [Compound (18), 1-[4-(N-methyl-N-cyclopentylamino)-6-quinazolinesulfonyl]-4-(2-ethoxy-2-phenylethyl)piperazine] | 1.4 | –
CCOC(CN1CCN(S(=O)(=O)c2ccc3ncnc(N(C)C4CCCCCC4)c3c2)CC1)c1ccccc1 (stereo not drawn) [Compound (20), 1-[4-(N-methyl-N-cycloheptylamino)-6-quinazolinesulfonyl]-4-(2-ethoxy-2-phenylethyl)piperazine] | 3.7 | –
CCOC(CN1CCN(S(=O)(=O)c2ccc3ncnc(N(CC(C)C)C4CCCCC4)c3c2)CC1)c1ccccc1 (stereo not drawn) [Compound (22), 1-[4-(N-isobutyl-N-cyclohexylamino)-6-quinazolinesulfonyl]-4-(2-ethoxy-2-phenylethyl)piperazine] | 2.5 | –
COC(CN1CCN(S(=O)(=O)c2ccc3ncnc(N(C)C4CCCCC4)c3c2)CC1)c1ccccc1 (stereo not drawn) [Compound (26), 1-[4-(N-methyl-N-cyclohexylamino)-6-quinazolinesulfonyl]-4-(2-methoxy-2-phenylethyl)piperazine] | 1.4 | –
CC(C)OC(CN1CCN(S(=O)(=O)c2ccc3ncnc(N(C)C4CCCCC4)c3c2)CC1)c1ccccc1 (stereo not drawn) [Compound (27), 1-[4-(N-methyl-N-cyclohexylamino)-6-quinazolinesulfonyl]-4-(2-isopropoxy-2-phenylethyl)piperazine] | 0.9 | –
CC(C)COC(CN1CCN(S(=O)(=O)c2ccc3ncnc(N(C)C4CCCCC4)c3c2)CC1)c1ccccc1 (stereo not drawn) [Compound (28), 1-[4-(N-methyl-N-cyclohexylamino)-6-quinazolinesulfonyl]-4-(2-isobutoxy-2-phenylethyl)piperazine] | 1.3 | –
NCCNS(=O)(=O)c1ccc2ncnc(N3CCCCC3)c2c1 [Compound (29), N-(2-aminoethyl)-4-piperidino-6-quinazolinesulfonamide] | 33 | –
NCCCNS(=O)(=O)c1ccc2ncnc(N3CCCCC3)c2c1 [Compound (30), N-(3-aminopropyl)-4-piperidino-6-quinazolinesulfonamide] | 30 | –
NCCCCCCCCCCNS(=O)(=O)c1ccc2ncnc(N3CCCCC3)c2c1 [Compound (33), N-(10-aminodecyl)-4-piperidino-6-quinazolinesulfonamide] | 34 | –
NCCCCNS(=O)(=O)c1ccc2ncnc(N3CCCC3)c2c1 [Compound (34), N-(4-aminobutyl)-4-(1-pyrrolidinyl)-6-quinazolinesulfonamide] | 27 | –
CN(C)c1ncnc2ccc(S(=O)(=O)NCCCCN)cc12 [Compound (35), N-(4-aminobutyl)-4-dimethylamino-6-quinazolinesulfonamide] | 54 | –
CCN(CC)c1ncnc2ccc(S(=O)(=O)NCCCCN)cc12 [Compound (36), N-(4-aminobutyl)-4-diethylamino-6-quinazolinesulfonamide] | 50 | –
CCCCCCN(CCCCCC)c1ncnc2ccc(S(=O)(=O)NCCCCN)cc12 [Compound (38), N-(4-aminobutyl)-4-dihexylamino-6-quinazolinesulfonamide] | 12 | –
